# According to paper PMC4394048 (Molecular cancer therapeutics, 2015):
# Tests used:
# OATP1B1/MDR1 = details: MDCKII-OATP1B1/MDR1 versus MDCKII-OATP1B1 cells, p < 0.001
# OATP1B3/MDR1 = details: MDCKII-OATP1B3/MDR1 versus MDCKII-OATP1B3 cells, p < 0.01
# [1] = cited from earlier work
# OATP1B3 [2] = target: T1, OATP1B3 (Homo sapiens, UniProt Q9NPD5); experiment: in vitro
# MDR1 = MDR1 (Homo sapiens, UniProt P08183); details: MDCKII-MDR1 versus MDCKII-Co cells over time; 0.1 μM; p < 0.05
# [3] = Mdr1a/1b−/− mice, intravenous administration; cited from earlier work
# [4] = Docetaxel distribution in Slco1b2−/− and wild-type mice; details: for mean plasma clearance ± S.D.: dose/AUC
# OATP1B3 [5] = target: T1, OATP1B3
# [6] = substrate: CC(=O)O[C@@]12CO[C@@H]1C[C@H](O)[C@@]1(C)C(=O)[C@H](O)C3=C(C)[C@@H](OC(=O)[C@H](O)[C@@H](NC(=O)OC(C)(C)C)c4ccccc4)C[C@@](O)([C@@H](OC(=O)c4ccccc4)[C@H]21)C3(C)C; experiment: cells, lysate or membranes named; details: other: HeLa cells; 0.1-100 μM; Michaelis-Menten fit; 37.0 °C
# T1 sequence (Q9NPD5 whole entry): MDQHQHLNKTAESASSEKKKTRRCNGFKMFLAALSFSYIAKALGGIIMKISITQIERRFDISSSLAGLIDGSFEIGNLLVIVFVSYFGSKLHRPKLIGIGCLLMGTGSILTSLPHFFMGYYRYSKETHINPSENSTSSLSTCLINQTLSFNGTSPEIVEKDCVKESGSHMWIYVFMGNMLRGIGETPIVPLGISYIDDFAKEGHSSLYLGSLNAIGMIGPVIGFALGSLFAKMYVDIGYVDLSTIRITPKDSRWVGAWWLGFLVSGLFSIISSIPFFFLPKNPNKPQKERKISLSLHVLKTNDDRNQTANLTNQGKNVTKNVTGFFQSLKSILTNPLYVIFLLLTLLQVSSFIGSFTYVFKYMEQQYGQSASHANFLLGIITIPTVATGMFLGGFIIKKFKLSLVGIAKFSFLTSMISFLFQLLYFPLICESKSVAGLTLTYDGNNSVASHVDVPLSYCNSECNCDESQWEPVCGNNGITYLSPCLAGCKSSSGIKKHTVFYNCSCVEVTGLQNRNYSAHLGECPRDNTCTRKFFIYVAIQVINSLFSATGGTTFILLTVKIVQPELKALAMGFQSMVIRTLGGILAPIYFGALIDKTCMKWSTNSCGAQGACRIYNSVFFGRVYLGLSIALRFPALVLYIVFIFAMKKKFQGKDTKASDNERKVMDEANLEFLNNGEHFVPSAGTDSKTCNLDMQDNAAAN
# Chain of MDR1 (P08183 whole entry): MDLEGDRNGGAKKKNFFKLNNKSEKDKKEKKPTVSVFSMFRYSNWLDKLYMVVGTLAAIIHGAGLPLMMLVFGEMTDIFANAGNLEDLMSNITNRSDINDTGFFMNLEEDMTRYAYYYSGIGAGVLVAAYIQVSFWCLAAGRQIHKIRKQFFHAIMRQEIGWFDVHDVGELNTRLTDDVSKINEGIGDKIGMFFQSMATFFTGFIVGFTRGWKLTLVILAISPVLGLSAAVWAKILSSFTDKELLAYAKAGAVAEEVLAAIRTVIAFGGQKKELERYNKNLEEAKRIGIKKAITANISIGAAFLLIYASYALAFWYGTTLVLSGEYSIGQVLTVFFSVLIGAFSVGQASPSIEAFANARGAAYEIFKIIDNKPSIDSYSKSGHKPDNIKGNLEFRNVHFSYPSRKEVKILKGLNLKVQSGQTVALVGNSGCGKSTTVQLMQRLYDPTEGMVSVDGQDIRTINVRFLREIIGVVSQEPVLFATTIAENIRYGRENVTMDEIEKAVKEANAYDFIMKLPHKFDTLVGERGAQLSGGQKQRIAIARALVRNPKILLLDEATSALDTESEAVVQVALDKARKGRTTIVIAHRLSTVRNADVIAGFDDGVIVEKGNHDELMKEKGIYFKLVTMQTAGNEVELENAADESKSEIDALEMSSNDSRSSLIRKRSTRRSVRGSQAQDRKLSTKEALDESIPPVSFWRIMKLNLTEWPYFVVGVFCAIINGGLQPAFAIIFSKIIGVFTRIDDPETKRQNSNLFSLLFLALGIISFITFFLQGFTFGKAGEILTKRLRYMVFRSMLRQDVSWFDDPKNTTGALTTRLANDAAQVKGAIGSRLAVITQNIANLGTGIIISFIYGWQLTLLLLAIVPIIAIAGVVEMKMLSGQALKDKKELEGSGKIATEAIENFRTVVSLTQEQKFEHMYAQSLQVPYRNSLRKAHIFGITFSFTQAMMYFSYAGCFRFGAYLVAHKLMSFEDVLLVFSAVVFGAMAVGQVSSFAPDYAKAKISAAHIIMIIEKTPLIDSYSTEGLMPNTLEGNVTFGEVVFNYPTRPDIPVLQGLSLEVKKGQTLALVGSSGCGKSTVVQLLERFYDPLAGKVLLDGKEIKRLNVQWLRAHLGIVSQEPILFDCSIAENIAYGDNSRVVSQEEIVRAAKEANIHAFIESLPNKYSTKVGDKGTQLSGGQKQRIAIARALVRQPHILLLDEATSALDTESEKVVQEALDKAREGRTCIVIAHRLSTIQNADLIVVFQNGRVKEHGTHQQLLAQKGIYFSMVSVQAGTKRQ
Molecule,"docetaxel transported into the apical compartment (OATP1B1/MDR1; 0.5h up to 3h, 0.1 μM)",intracellular docetaxel (OATP1B1/MDR1; all time points),"docetaxel transported into the apical compartment (OATP1B3/MDR1; 0.5h up to 3h, 0.1 μM)",intracellular docetaxel (OATP1B3/MDR1; all time points),increase in docetaxel clearance ([1]; CYP3A4*1B and CYP3A5*1A alleles (CYP3A4/5*2 haplotype)) [%],docetaxel excreted in bile ([1]; humans),docetaxel excreted in urine ([1]; humans),difference in drug clearance amongst patients ([1]; patients receiving the same treatment regimens),increase in odds of developing grade 4 neutropenia ([1]; with a 50% decrease in docetaxel clearance),Km (OATP1B3 [2]) [µM],apical docetaxel accumulation (basal-to-apical) (MDR1),AUC of docetaxel in knockout versus wild-type mice [3],"plasma clearance in Slco1b2−/− mice, lower than wild-type mice ([4]; 1 mg/kg intravenous, p < 0.05) [%]","mean plasma clearance ± S.D. ([4]; Slco1b2−/− mice, 1 mg/kg intravenous) [mL/min/kg]","docetaxel liver concentrations ([4]; Slco1b2−/− versus wild-type mice, 30 min after 1 mg/kg intravenous)","mean plasma clearance ± S.D. ([4]; wild-type mice, 1 mg/kg intravenous) [mL/h]",Vmax (OATP1B3 [5]) [pmol/mg/min],Km [6] [µM],Vmax [6] [pmol/mg/min]
CC(=O)O[C@@]12CO[C@@H]1C[C@H](O)[C@@]1(C)C(=O)[C@H](O)C3=C(C)[C@@H](OC(=O)[C@H](O)[C@@H](NC(=O)OC(C)(C)C)c4ccccc4)C[C@@](O)([C@@H](OC(=O)c4ccccc4)[C@H]21)C3(C)C [docetaxel],significantly higher,significantly lower,significantly higher,significantly lower,64,~ 75%,~ 5%,up to 10 fold,more than 4 fold,14 ± 6.5,significantly higher,similar,83,1.22 ± 0.583,no significant difference,473 ± 124,480 ± 90,–,–
Oatp1b2 (Rattus norvegicus) (protein) MDHTQQSRKAAEAQPSRSKQTRFCDGFKLFLAALSFSYICKALGGVVMKSSITQIERRFDIPSSISGLIDGGFEIGNLLVIVFVSYFGSKLHRPKLIGIGCFIMGIGSILTALPHFFMGYYKYAKENDIGSLGNSTLTCFINQMTSPTGPSPEIVEKGCEKGLKSHMWIYVLMGNMLRGIGETPIVPLGISYLDDFAKEGHTSMHLGTLHTIAMIGPILGFIMSSVFAKIYVDVGYVDLNSVRITPNDARWVGAWWLSFIVNGLLCITSSIPFFFLPKIPKRSQEERKNSVSLHAPKTDEEKKHMTNLTKQEEQDPSNMTGFLRSLRSILTNEIYVIFLILTLLQVSGFIGSFTYLFKFIEQQFGRTASQANFLLGIITIPTMATAMFLGGYIVKKFKLTSVGIAKFVFFTSSVAYAFQFLYFPLLCENKPFAGLTLTYDGMNPVDSHIDVPLSYCNSDCSCDKNQWEPICGENGVTYISPCLAGCKSFRGDKKPNNTEFYDCSCISNSGNNSAHLGECPRYKCKTNYYFYIILQVTVSFFTAMGSPSLILILMKSVQPELKSLAMGFHSLIIRALGGILAPIYYGAFIDRTCIKWSVTSCGKRGACRLYNSRLFGFSYLGLNLALKTPPLFLYVVLIYFTKRKYKRNDNKTLENGRQFTDEGNPDSVNKNGYYCVPYDEQSNETPL,–,–,–,–,–,–,–,–,–,–,–,–,–,–,–,–,–,20.8 ± 7.4,1548 ± 186
